Measured values: patent publication US12338237B2, “Derivatives having 1,2,3,4-tetrahydronaphthalene moiety or pharmaceutically acceptable salt thereof and pharmaceutical compositions comprising the same” (YUHAN CORPORATION, priority 2019, dated 2025)
Where two headings read alike, the source gives them in different places.

Columns and labels:
[1] = target: glucosylceramide synthase (GCS) (Homo sapiens (Human), UniProt Q16739); experiment: Evaluation of inhibitory activities against GCS (enzyme reaction with A549 cell lysate, NBD C6-ceramide, HPLC fluorescence); format: biochemical; conditions: GCS activity in A549 cell lysate, 37° C. for 90 minutes
Chain of glucosylceramide synthase (GCS) (Q16739 whole entry, looked up): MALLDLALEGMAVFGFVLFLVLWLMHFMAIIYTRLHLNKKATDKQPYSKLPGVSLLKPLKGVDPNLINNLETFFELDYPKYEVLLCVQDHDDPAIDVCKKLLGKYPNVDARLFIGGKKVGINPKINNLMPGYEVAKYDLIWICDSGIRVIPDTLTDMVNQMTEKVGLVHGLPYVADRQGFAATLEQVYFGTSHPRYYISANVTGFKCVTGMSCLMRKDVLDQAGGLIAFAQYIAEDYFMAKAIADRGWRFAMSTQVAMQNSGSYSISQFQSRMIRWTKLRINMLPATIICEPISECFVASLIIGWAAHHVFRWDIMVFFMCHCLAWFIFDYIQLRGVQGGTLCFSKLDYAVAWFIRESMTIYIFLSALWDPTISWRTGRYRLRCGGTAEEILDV
Summary of the method: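 Lysate of A549 cells in 50 mM HEPES pH 7.3 incubated with test compound and NBD C6-ceramide at 37 °C for 90 min; lipids extracted with chloroform/methanol and GlcCer and ceramide peaks quantified by HPLC fluorescence. Activity from GlcCer area fraction, normalised between DMSO and ibiglustat controls.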

[2] = tested on: GM1 production; experiment: cells; format: cell-based

CC1(C)CCc2cc(-c3cccc(C(F)(F)F)c3)ccc2C1NC(=O)O[C@@H]1CN2CCC1CC2 (stereo partly drawn) [Example 92, (S)-quinuclidin-3-yl (2,2-dimethyl-6-(3-(trifluoromethyl)phenyl)-1,2,3,4-tetrahydronaphthalen-1-yl)carbamate]
IC50 [1]: 1.04 nM
IC50 ([2]; Homo sapiens, Jurkat, 72 h): 2.72 nM

CC1(C)CCc2cc(-c3cccc(OC(F)(F)F)c3)ccc2C1NC(=O)O[C@@H]1CN2CCC1CC2 (stereo partly drawn) [Example 93, (S)-quinuclidin-3-yl (2,2-dimethyl-6-(3-(trifluoromethoxy)phenyl)-1,2,3,4-tetrahydronaphthalen-1-yl)carbamate]
IC50 [1]: 1.76 nM
IC50 ([2]; Homo sapiens, Jurkat, 72 h): 0.388 nM

CC1(C)CCc2cc(-c3ccccc3F)ccc2C1NC(=O)O[C@@H]1CN2CCC1CC2 (stereo partly drawn) [Example 94, (S)-quinuclidin-3-yl (6-(2-fluorophenyl)-2,2-dimethyl-1,2,3,4-tetrahydronaphthalen-1-yl)carbamate]
IC50 [1]: 0.97 nM
IC50 ([2]; Homo sapiens, Jurkat, 72 h): 3.1 nM

CC1(C)CCc2cc(-c3ccccc3Cl)ccc2C1NC(=O)O[C@@H]1CN2CCC1CC2 (stereo partly drawn) [Example 95, (S)-quinuclidin-3-yl (6-(2-chlorophenyl)-2,2-dimethyl-1,2,3,4-tetrahydronaphthalen-1-yl)carbamate]
IC50 [1]: 0.85 nM
IC50 ([2]; Homo sapiens, Jurkat, 72 h): 0.123 nM

CC1(C)CCc2cc(-c3ccccc3C(F)(F)F)ccc2C1NC(=O)O[C@@H]1CN2CCC1CC2 (stereo partly drawn) [Example 96, (S)-quinuclidin-3-yl (2,2-dimethyl-6-(2-(trifluoromethyl)phenyl)-1,2,3,4-tetrahydronaphthalen-1-yl)carbamate]
IC50 [1]: 1.79 nM
IC50 ([2]; Homo sapiens, Jurkat, 72 h): 3.29 nM

CC1(C)CCc2cc(-c3ccccc3OC(F)(F)F)ccc2C1NC(=O)O[C@@H]1CN2CCC1CC2 (stereo partly drawn) [Example 97, (S)-quinuclidin-3-yl (2,2-dimethyl-6-(2-(trifluoromethoxy)phenyl)-1,2,3,4-tetrahydronaphthalen-1-yl)carbamate]
IC50 [1]: 0.86 nM
IC50 ([2]; Homo sapiens, Jurkat, 72 h): 1.39 nM

Cc1ccc(-c2ccc3c(c2)CCC(C)(C)C3NC(=O)O[C@@H]2CN3CCC2CC3)cc1 (stereo partly drawn) [Example 98, (S)-quinuclidin-3-yl (2,2-dimethyl-6-(p-tolyl)-1,2,3,4-tetrahydronaphthalen-1-yl)carbamate]
IC50 [1]: 1.7 nM
IC50 ([2]; Homo sapiens, Jurkat, 72 h): 2.05 nM

CC1(C)CCc2cc(-c3ccc(OC(F)F)cc3)ccc2C1NC(=O)O[C@@H]1CN2CCC1CC2 (stereo partly drawn) [Example 99, (S)-quinuclidin-3-yl (6-(4-(difluoromethoxy)phenyl)-2,2-dimethyl-1,2,3,4-tetrahydronaphthalen-1-yl)carbamate]
IC50 [1]: 1.65 nM
IC50 ([2]; Homo sapiens, Jurkat, 72 h): 2.56 nM

CC1(C)CCc2cc(-c3ccc(F)c(F)c3)ccc2C1NC(=O)O[C@@H]1CN2CCC1CC2 (stereo partly drawn) [Example 100, (S)-quinuclidin-3-yl (6-(3,4-difluorophenyl)-2,2-dimethyl-1,2,3,4-tetrahydronaphthalen-1-yl)carbamate]
IC50 [1]: 1.78 nM
IC50 ([2]; Homo sapiens, Jurkat, 72 h): 2.59 nM

CC1(C)CCc2cc(-c3ccc(F)cc3F)ccc2C1NC(=O)O[C@@H]1CN2CCC1CC2 (stereo partly drawn) [Example 101, (S)-quinuclidin-3-yl (6-(2,4-difluorophenyl)-2,2-dimethyl-1,2,3,4-tetrahydronaphthalen-1-yl)carbamate]
IC50 [1]: 1.59 nM
IC50 ([2]; Homo sapiens, Jurkat, 72 h): 2.55 nM

CC1(C)CCc2cc(-c3cc(F)ccc3F)ccc2C1NC(=O)O[C@@H]1CN2CCC1CC2 (stereo partly drawn) [Example 103, (S)-quinuclidin-3-yl (6-(2,5-difluorophenyl)-2,2-dimethyl-1,2,3,4-tetrahydronaphthalen-1-yl)carbamate]
IC50 [1]: 0.95 nM
IC50 ([2]; Homo sapiens, Jurkat, 72 h): 0.997 nM

CC1(C)CCc2cc(-c3cc(F)cc(F)c3)ccc2C1NC(=O)O[C@@H]1CN2CCC1CC2 (stereo partly drawn) [Example 104, (S)-quinuclidin-3-yl (6-(3,5-difluorophenyl)-2,2-dimethyl-1,2,3,4-tetrahydronaphthalen-1-yl)carbamate]
IC50 [1]: 2.25 nM
IC50 ([2]; Homo sapiens, Jurkat, 72 h): 2.27 nM

CC1(C)CCc2cc(-c3cc(Cl)ccc3Cl)ccc2C1NC(=O)O[C@@H]1CN2CCC1CC2 (stereo partly drawn) [Example 105, (S)-quinuclidin-3-yl (6-(2,5-dichlorophenyl)-2,2-dimethyl-1,2,3,4-tetrahydronaphthalen-1-yl)carbamate]
IC50 [1]: 1.39 nM
IC50 ([2]; Homo sapiens, Jurkat, 72 h): 0.21 nM

CC1(C)CCc2cc(-c3ccc(Cl)c(Cl)c3)ccc2C1NC(=O)O[C@@H]1CN2CCC1CC2 (stereo partly drawn) [Example 106, (S)-quinuclidin-3-yl (6-(3,4-dichlorophenyl)-2,2-dimethyl-1,2,3,4-tetrahydronaphthalen-1-yl)carbamate]
IC50 [1]: 4.05 nM
IC50 ([2]; Homo sapiens, Jurkat, 72 h): 3.33 nM

CC1(C)CCc2cc(-c3cc(Cl)cc(Cl)c3)ccc2C1NC(=O)O[C@@H]1CN2CCC1CC2 (stereo partly drawn) [Example 107, (S)-quinuclidin-3-yl (6-(3,5-dichlorophenyl)-2,2-dimethyl-1,2,3,4-tetrahydronaphthalen-1-yl)carbamate]
IC50 [1]: 5.86 nM
IC50 ([2]; Homo sapiens, Jurkat, 72 h): 6.5 nM

CC1(C)CCc2cc(-c3cc(F)c(F)cc3F)ccc2C1NC(=O)O[C@@H]1CN2CCC1CC2 (stereo partly drawn) [Example 108, (S)-quinuclidin-3-yl (2,2-dimethyl-6-(2,4,5-trifluorophenyl)-1,2,3,4-tetrahydronaphthalen-1-yl)carbamate]
IC50 [1]: 2.55 nM
IC50 ([2]; Homo sapiens, Jurkat, 72 h): 6.7 nM

CC1(C)CCc2cc(-c3ccc(F)c(F)c3F)ccc2C1NC(=O)O[C@@H]1CN2CCC1CC2 (stereo partly drawn) [Example 109, (S)-quinuclidin-3-yl (2,2-dimethyl-6-(2,3,4-trifluorophenyl)-1,2,3,4-tetrahydronaphthalen-1-yl)carbamate]
IC50 [1]: 2.89 nM
IC50 ([2]; Homo sapiens, Jurkat, 72 h): 2.97 nM

COCCOc1ccc(-c2ccc3c(c2)CCC(C)(C)C3NC(=O)O[C@@H]2CN3CCC2CC3)cc1 (stereo partly drawn) [Example 110, (S)-quinuclidin-3-yl (6-(4-(2-methoxyethoxy)phenyl)-2,2-dimethyl-1,2,3,4-tetrahydronaphthalen-1-yl)carbamate]
IC50 [1]: 0.64 nM
IC50 ([2]; Homo sapiens, Jurkat, 72 h): 0.29 nM

COCCOc1cccc(-c2ccc3c(c2)CCC(C)(C)C3NC(=O)O[C@@H]2CN3CCC2CC3)c1 (stereo partly drawn) [Example 111, (S)-quinuclidin-3-yl (6-(3-(2-methoxyethoxy)phenyl)-2,2-dimethyl-1,2,3,4-tetrahydronaphthalen-1-yl)carbamate]
IC50 [1]: 2.36 nM
IC50 ([2]; Homo sapiens, Jurkat, 72 h): 1.84 nM

COCCOc1ccccc1-c1ccc2c(c1)CCC(C)(C)C2NC(=O)O[C@@H]1CN2CCC1CC2 (stereo partly drawn) [Example 112, (S)-quinuclidin-3-yl (6-(2-(2-methoxyethoxy)phenyl)-2,2-dimethyl-1,2,3,4-tetrahydronaphthalen-1-yl)carbamate]
IC50 [1]: 3.75 nM
IC50 ([2]; Homo sapiens, Jurkat, 72 h): 0.802 nM

COCOc1ccc(-c2ccc3c(c2)CCC(C)(C)C3NC(=O)O[C@@H]2CN3CCC2CC3)cc1 (stereo partly drawn) [Example 113, (S)-quinuclidin-3-yl (6-(4-(methoxymethoxy)phenyl)-2,2-dimethyl-1,2,3,4-tetrahydronaphthalen-1-yl)carbamate]
IC50 [1]: 0.94 nM
IC50 ([2]; Homo sapiens, Jurkat, 72 h): 0.964 nM

COCOc1cccc(-c2ccc3c(c2)CCC(C)(C)C3NC(=O)O[C@@H]2CN3CCC2CC3)c1 (stereo partly drawn) [Example 114, (S)-quinuclidin-3-yl (6-(3-(methoxymethoxy)phenyl)-2,2-dimethyl-1,2,3,4-tetrahydronaphthalen-1-yl)carbamate]
IC50 [1]: 1.8 nM
IC50 ([2]; Homo sapiens, Jurkat, 72 h): 1.27 nM

COCOc1ccccc1-c1ccc2c(c1)CCC(C)(C)C2NC(=O)O[C@@H]1CN2CCC1CC2 (stereo partly drawn) [Example 115, (S)-quinuclidin-3-yl (6-(2-(methoxymethoxy)phenyl)-2,2-dimethyl-1,2,3,4-tetrahydronaphthalen-1-yl)carbamate]
IC50 [1]: 1.17 nM
IC50 ([2]; Homo sapiens, Jurkat, 72 h): 0.56 nM

COc1cc(-c2ccc3c(c2)CCC(C)(C)C3NC(=O)O[C@@H]2CN3CCC2CC3)ccn1 (stereo partly drawn) [Example 116, (S)-quinuclidin-3-yl (6-(2-methoxypyridin-4-yl)-2,2-dimethyl-1,2,3,4-tetrahydronaphthalen-1-yl)carbamate]
IC50 [1]: 8.62 nM
IC50 ([2]; Homo sapiens, Jurkat, 72 h): 7.76 nM

Cc1cc(-c2ccc3c(c2)CCC(C)(C)C3NC(=O)O[C@@H]2CN3CCC2CC3)ccn1 (stereo partly drawn) [Example 117, (S)-quinuclidin-3-yl (2,2-dimethyl-6-(2-methylpyridin-4-yl)-1,2,3,4-tetrahydronaphthalen-1-yl)carbamate]
IC50 [1]: 30.3 nM
IC50 ([2]; Homo sapiens, Jurkat, 72 h): 37.8 nM

CC1(C)CCc2cc(-c3ccnc(F)c3)ccc2C1NC(=O)O[C@@H]1CN2CCC1CC2 (stereo partly drawn) [Example 118, (S)-quinuclidin-3-yl (6-(2-fluoropyridin-4-yl)-2,2-dimethyl-1,2,3,4-tetrahydronaphthalen-1-yl)carbamate]
IC50 [1]: 17 nM
IC50 ([2]; Homo sapiens, Jurkat, 72 h): 12.4 nM

CC1(C)CCc2cc(-c3ccnc(C(F)(F)F)c3)ccc2C1NC(=O)O[C@@H]1CN2CCC1CC2 (stereo partly drawn) [Example 119, (S)-quinuclidin-3-yl (2,2-dimethyl-6-(2-(trifluoromethyl)pyridin-4-yl)-1,2,3,4-tetrahydronaphthalen-1-yl) carbamate]
IC50 [1]: 11.2 nM
IC50 ([2]; read-out: IC50): 1.86 nM

COc1ccc(-c2ccc3c(c2)CCC(C)(C)C3NC(=O)O[C@@H]2CN3CCC2CC3)cc1 (stereo partly drawn) [Example 120, (S)-quinuclidin-3-yl (6-(4-methoxyphenyl)-2,2-dimethyl-1,2,3,4-tetrahydronaphthalen-1-yl)carbamate]
IC50 [1]: 5.65 nM
IC50 ([2]; Homo sapiens, Jurkat, 72 h): 1.83 nM

COc1cccc(-c2ccc3c(c2)CCC(C)(C)C3NC(=O)O[C@@H]2CN3CCC2CC3)c1 (stereo partly drawn) [Example 121, (S)-quinuclidin-3-yl (6-(3-methoxyphenyl)-2,2-dimethyl-1,2,3,4-tetrahydronaphthalen-1-yl)carbamate]
IC50 [1]: 5.51 nM
IC50 ([2]; Homo sapiens, Jurkat, 72 h): 0.0387 nM

CCOc1cccc(-c2ccc3c(c2)CCC(C)(C)C3NC(=O)O[C@@H]2CN3CCC2CC3)c1 (stereo partly drawn) [Example 122, (S)-quinuclidin-3-yl (6-(3-ethoxyphenyl)-2,2-dimethyl-1,2,3,4-tetrahydronaphthalen-1-yl)carbamate]
IC50 [1]: 3.38 nM
IC50 ([2]; Homo sapiens, Jurkat, 72 h): 0.774 nM

COc1ccc(-c2ccc3c(c2)CCC(C)(C)C3NC(=O)O[C@@H]2CN3CCC2CC3)c(Cl)c1 (stereo partly drawn) [Example 123, (S)-quinuclidin-3-yl (6-(2-chloro-4-methoxyphenyl)-2,2-dimethyl-1,2,3,4-tetrahydronaphthalen-1-yl)carbamate]
IC50 [1]: 0.97 nM
IC50 ([2]; Homo sapiens, Jurkat, 72 h): 1.43 nM
